The kinase profiling compilation of Christmann-Franck et al. (2016)

Tests used:
Experiment in all cases: KINOMEscan competition binding
Settings in all cases: compound 10.0 µM
MUSK (human) = MUSK (human) (UniProt O15146)
RPS6KA6 KD1 (human) = RPS6KA6 KD1 (human) (UniProt Q9UK32)
PRKACB (human) = PRKACB (human) (UniProt P22694)
EIF2AK2 (human) = EIF2AK2 (human) (UniProt P19525)
SRC (human) = SRC (human) (UniProt P12931)
CDC42BPB (human) = CDC42BPB (human) (UniProt Q9Y5S2)
CSNK1E (human) = CSNK1E (human) (UniProt P49674)
IRAK3 (human) = IRAK3 (human) (UniProt Q9Y616)
TLK1 (human) = TLK1 (human) (UniProt Q9UKI8)
PHKG2 (human) = PHKG2 (human) (UniProt P15735)
CaMK1 (human) = CaMK1 (human) (UniProt Q14012)
RIPK2 (human) = RIPK2 (human) (UniProt O43353)
RIOK2 (human) = RIOK2 (human) (UniProt Q9BVS4)
NEK7 (human) = NEK7 (human) (UniProt Q8TDX7)
PRKACA (human) = PRKACA (human) (UniProt P17612)
ROS1 (human) = ROS1 (human) (UniProt P08922)
MAPK1 (human) = MAPK1 (human) (UniProt P28482)
HIPK1 (human) = HIPK1 (human) (UniProt Q86Z02)
MARK1 (human) = MARK1 (human) (UniProt Q9P0L2)
CLK3 (human) = CLK3 (human) (UniProt P49761)
CDK7 (human) = CDK7 (human) (UniProt P50613)
EPHB1 (human) = EPHB1 (human) (UniProt P54762)
[1] = target: JAK1 JH1 catalytic (human) (UniProt P23458)
MAPK12 (human) = MAPK12 (human) (UniProt P53778)
MAPK4 (human) = MAPK4 (human) (UniProt P31152)
TSSK1B (human) = TSSK1B (human) (UniProt Q9BXA7)
EPHB3 (human) = EPHB3 (human) (UniProt P54753)
MYLK2 (human) = MYLK2 (human) (UniProt Q9H1R3)
MAP3K9 (human) = MAP3K9 (human) (UniProt P80192)
PIM1 (human) = PIM1 (human) (UniProt P11309)
CDKL2 (human) = CDKL2 (human) (UniProt Q92772)
PIP4K2B (human) = PIP4K2B (human) (UniProt P78356)
DAPK3 (human) = DAPK3 (human) (UniProt O43293)
NEK6 (human) = NEK6 (human) (UniProt Q9HC98)
DDR2 (human) = DDR2 (human) (UniProt Q16832)
AURKA (human) = AURKA (human) (UniProt O14965)
MAP4K5 (human) = MAP4K5 (human) (UniProt Q9Y4K4)
BMPR2 (human) = BMPR2 (human) (UniProt Q13873)
[2] = target: JAK2 JH1 catalytic (human) (UniProt O60674)
EPHA3 (human) = EPHA3 (human) (UniProt P29320)

Sequence of SRC (human) (P12931 whole entry, looked up): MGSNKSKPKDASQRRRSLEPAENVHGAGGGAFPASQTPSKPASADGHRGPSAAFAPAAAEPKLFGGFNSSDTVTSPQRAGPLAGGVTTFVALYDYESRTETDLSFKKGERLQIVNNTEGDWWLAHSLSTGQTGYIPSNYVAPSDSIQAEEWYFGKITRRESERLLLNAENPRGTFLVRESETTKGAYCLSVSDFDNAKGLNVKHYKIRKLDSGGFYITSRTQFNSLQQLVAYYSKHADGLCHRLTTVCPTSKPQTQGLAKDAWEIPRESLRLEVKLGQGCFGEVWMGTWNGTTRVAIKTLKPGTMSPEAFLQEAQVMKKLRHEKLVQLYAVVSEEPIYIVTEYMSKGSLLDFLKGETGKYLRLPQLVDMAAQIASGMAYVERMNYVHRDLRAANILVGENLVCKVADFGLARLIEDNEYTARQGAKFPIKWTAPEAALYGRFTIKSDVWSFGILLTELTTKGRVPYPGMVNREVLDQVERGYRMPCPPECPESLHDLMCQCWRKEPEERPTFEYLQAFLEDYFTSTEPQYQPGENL
Sequence of DAPK3 (human) (O43293 whole entry, looked up): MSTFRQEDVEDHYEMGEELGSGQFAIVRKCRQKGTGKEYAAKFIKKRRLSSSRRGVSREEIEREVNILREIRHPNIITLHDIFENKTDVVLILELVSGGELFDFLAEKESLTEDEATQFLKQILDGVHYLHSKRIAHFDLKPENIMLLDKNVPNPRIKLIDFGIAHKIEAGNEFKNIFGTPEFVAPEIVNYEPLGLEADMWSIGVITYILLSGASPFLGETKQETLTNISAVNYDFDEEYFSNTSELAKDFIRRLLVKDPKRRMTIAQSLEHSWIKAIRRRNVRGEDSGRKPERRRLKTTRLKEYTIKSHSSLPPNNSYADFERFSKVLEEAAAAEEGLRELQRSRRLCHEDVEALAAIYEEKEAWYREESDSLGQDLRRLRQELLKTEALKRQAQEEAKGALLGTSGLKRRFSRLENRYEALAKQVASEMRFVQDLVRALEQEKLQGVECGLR
Sequence of AURKA (human) (O14965 whole entry, looked up): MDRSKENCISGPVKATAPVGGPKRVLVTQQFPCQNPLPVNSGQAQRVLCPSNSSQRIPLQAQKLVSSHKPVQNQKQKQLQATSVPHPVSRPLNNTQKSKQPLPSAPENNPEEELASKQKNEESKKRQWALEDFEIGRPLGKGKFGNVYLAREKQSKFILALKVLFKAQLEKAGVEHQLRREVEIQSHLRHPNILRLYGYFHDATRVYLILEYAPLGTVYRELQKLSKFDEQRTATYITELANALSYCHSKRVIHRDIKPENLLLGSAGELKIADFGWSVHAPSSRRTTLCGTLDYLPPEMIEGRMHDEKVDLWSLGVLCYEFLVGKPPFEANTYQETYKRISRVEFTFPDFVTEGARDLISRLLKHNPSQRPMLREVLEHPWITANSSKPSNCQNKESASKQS
Sequence of CDKL2 (human) (Q92772 whole entry, looked up): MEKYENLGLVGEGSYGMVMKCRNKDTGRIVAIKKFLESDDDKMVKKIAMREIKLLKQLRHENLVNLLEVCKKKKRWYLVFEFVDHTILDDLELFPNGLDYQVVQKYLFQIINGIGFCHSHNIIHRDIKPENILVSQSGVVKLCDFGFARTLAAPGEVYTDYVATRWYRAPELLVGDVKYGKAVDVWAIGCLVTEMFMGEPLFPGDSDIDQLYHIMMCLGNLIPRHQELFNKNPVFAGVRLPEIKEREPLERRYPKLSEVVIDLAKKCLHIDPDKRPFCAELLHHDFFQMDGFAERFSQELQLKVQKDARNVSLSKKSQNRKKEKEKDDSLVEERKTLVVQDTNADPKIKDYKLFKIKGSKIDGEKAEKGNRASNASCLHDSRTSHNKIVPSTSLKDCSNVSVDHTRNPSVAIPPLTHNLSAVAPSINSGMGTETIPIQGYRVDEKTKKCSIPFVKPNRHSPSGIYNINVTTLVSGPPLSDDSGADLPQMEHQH
Sequence of MAPK4 (human) (P31152 whole entry, looked up): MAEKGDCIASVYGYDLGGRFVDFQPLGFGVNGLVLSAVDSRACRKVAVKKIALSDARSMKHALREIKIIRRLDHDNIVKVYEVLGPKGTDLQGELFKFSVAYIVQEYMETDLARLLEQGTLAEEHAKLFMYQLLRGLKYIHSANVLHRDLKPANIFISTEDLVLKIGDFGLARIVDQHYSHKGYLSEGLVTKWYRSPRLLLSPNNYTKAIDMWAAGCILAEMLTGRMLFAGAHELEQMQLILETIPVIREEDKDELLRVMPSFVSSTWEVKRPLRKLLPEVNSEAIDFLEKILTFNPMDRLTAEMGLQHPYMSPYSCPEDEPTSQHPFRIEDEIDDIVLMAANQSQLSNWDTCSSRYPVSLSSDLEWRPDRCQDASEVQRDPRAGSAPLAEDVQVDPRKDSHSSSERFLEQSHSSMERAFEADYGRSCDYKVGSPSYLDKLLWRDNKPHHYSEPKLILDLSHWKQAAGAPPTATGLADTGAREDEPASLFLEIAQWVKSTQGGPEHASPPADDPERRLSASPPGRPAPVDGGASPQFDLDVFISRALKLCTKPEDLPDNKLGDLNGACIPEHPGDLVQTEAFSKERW
Sequence of IRAK3 (human) (Q9Y616 whole entry, looked up): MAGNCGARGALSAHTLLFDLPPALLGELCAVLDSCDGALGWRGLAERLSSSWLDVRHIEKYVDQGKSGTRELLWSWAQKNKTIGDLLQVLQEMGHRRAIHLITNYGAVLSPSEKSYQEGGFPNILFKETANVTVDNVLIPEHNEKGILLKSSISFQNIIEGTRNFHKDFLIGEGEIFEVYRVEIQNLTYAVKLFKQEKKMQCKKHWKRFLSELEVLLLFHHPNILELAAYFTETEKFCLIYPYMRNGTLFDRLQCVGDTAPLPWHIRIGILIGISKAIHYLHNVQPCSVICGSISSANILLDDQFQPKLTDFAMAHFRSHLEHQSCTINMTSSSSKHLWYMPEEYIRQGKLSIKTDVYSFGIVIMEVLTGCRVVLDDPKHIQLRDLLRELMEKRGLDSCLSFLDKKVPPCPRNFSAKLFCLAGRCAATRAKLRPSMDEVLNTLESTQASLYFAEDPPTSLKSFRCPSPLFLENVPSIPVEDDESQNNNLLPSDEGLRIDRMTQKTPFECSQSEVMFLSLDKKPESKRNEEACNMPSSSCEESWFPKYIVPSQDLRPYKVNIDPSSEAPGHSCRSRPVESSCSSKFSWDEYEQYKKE
Sequence of RIOK2 (human) (Q9BVS4 whole entry, looked up): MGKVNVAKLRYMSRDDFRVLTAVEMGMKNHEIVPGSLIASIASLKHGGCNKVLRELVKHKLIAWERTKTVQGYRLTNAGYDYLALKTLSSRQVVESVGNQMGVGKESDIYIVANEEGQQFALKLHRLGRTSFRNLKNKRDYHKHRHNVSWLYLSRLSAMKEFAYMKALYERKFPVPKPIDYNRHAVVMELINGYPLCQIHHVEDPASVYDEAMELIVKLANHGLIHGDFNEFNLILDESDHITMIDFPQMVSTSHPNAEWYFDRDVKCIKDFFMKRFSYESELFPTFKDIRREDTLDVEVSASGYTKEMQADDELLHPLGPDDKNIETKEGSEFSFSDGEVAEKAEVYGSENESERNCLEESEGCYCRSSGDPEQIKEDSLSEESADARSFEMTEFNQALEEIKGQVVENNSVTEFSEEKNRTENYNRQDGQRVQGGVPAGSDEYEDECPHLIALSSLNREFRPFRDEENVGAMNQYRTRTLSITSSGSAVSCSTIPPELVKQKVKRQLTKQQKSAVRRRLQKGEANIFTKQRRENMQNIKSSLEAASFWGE
Sequence of EPHB3 (human) (P54753 whole entry, looked up): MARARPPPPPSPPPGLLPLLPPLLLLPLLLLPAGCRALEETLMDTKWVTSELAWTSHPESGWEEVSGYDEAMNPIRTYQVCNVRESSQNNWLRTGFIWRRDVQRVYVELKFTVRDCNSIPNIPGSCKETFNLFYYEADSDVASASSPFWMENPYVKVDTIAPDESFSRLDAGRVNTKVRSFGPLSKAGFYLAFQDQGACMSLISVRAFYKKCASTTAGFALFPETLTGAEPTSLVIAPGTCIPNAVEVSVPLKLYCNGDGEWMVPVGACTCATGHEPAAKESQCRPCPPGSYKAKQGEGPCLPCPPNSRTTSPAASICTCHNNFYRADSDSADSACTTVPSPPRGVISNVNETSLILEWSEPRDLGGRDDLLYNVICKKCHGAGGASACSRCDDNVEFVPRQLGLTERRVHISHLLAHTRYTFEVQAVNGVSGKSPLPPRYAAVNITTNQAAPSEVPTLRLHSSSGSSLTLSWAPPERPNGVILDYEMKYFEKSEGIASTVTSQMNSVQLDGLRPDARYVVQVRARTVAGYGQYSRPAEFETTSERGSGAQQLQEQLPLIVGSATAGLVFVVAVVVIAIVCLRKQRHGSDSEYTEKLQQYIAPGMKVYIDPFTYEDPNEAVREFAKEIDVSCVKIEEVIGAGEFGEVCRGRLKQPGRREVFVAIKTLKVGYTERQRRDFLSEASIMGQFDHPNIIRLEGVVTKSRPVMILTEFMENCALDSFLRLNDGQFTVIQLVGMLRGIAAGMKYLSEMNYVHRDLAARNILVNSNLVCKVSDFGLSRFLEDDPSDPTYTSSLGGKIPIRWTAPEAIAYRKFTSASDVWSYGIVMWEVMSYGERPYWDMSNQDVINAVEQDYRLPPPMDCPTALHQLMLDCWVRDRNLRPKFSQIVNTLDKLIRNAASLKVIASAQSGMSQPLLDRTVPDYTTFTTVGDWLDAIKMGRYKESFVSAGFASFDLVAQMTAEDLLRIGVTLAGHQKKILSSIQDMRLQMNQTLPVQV
Sequence of PIM1 (human) (P11309 whole entry, looked up): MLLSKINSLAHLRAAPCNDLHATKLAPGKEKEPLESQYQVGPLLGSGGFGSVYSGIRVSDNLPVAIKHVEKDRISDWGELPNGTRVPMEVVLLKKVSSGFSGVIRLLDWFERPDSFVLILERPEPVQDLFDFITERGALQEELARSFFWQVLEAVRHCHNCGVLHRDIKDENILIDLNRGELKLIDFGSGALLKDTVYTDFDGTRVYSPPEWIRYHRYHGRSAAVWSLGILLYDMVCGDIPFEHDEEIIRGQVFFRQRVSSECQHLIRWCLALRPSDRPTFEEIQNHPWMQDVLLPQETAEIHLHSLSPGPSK

SMILES	kinase still bound, per cent of control (MUSK (human)) [%]	kinase still bound, per cent of control (RPS6KA6 KD1 (human)) [%]	kinase still bound, per cent of control (PRKACB (human)) [%]	kinase still bound, per cent of control (EIF2AK2 (human)) [%]	kinase still bound, per cent of control (SRC (human)) [%]	kinase still bound, per cent of control (CDC42BPB (human)) [%]	kinase still bound, per cent of control (CSNK1E (human)) [%]	kinase still bound, per cent of control (IRAK3 (human)) [%]	kinase still bound, per cent of control (TLK1 (human)) [%]	kinase still bound, per cent of control (PHKG2 (human)) [%]	kinase still bound, per cent of control (CaMK1 (human)) [%]	kinase still bound, per cent of control (RIPK2 (human)) [%]	kinase still bound, per cent of control (RIOK2 (human)) [%]	kinase still bound, per cent of control (NEK7 (human)) [%]	kinase still bound, per cent of control (PRKACA (human)) [%]	kinase still bound, per cent of control (ROS1 (human)) [%]	kinase still bound, per cent of control (MAPK1 (human)) [%]	kinase still bound, per cent of control (HIPK1 (human)) [%]	kinase still bound, per cent of control (MARK1 (human)) [%]	kinase still bound, per cent of control (CLK3 (human)) [%]	further results
COc1cc(C(=O)NC2CCN(C)CC2)ccc1Nc1ncc2c(n1)N(C1CCCC1)CCC(=O)N2C(C)C	100	100	100	100	100	100	100	100	100	100	100	100	100	100	100	100	100	100	100	100	kinase still bound, per cent of control (CDK7 (human)): 100%; kinase still bound, per cent of control (EPHB1 (human)): 100%; kinase still bound, per cent of control [1]: 100%; kinase still bound, per cent of control (MAPK12 (human)): 100%; kinase still bound, per cent of control (MAPK4 (human)): 100%; kinase still bound, per cent of control (TSSK1B (human)): 100%; kinase still bound, per cent of control (EPHB3 (human)): 100%; kinase still bound, per cent of control (MYLK2 (human)): 100%; kinase still bound, per cent of control (MAP3K9 (human)): 100%; kinase still bound, per cent of control (PIM1 (human)): 100%; kinase still bound, per cent of control (CDKL2 (human)): 100%; kinase still bound, per cent of control (PIP4K2B (human)): 100%; kinase still bound, per cent of control (DAPK3 (human)): 100%; kinase still bound, per cent of control (NEK6 (human)): 100%; kinase still bound, per cent of control (DDR2 (human)): 100%; kinase still bound, per cent of control (AURKA (human)): 100%; kinase still bound, per cent of control (MAP4K5 (human)): 100%; kinase still bound, per cent of control (BMPR2 (human)): 100%; kinase still bound, per cent of control [2]: 100%; kinase still bound, per cent of control (EPHA3 (human)): 100%
Cc1cc([C@@H](C)Nc2ccccc2C(=O)O)c2nc(N3CCOCC3)cc(=O)n2c1	100	71	100	99	100	100	98	58	96	100	100	94	54	100	100	100	100	100	100	100	kinase still bound, per cent of control (CDK7 (human)): 97%; kinase still bound, per cent of control (EPHB1 (human)): 98%; kinase still bound, per cent of control [1]: 100%; kinase still bound, per cent of control (MAPK12 (human)): 94%; kinase still bound, per cent of control (MAPK4 (human)): 98%; kinase still bound, per cent of control (TSSK1B (human)): 100%; kinase still bound, per cent of control (EPHB3 (human)): 100%; kinase still bound, per cent of control (MYLK2 (human)): 100%; kinase still bound, per cent of control (MAP3K9 (human)): 91%; kinase still bound, per cent of control (PIM1 (human)): 100%; kinase still bound, per cent of control (CDKL2 (human)): 91%; kinase still bound, per cent of control (PIP4K2B (human)): 100%; kinase still bound, per cent of control (DAPK3 (human)): 100%; kinase still bound, per cent of control (NEK6 (human)): 100%; kinase still bound, per cent of control (DDR2 (human)): 83%; kinase still bound, per cent of control (AURKA (human)): 100%; kinase still bound, per cent of control (MAP4K5 (human)): 96%; kinase still bound, per cent of control (BMPR2 (human)): 85%; kinase still bound, per cent of control [2]: 62%; kinase still bound, per cent of control (EPHA3 (human)): 79%
